Measured values as given in US20260374766A1, “METHODS FOR TREATING CANCER” (Antares Therapeutics, Inc., priority 2022, published 2026).

What was measured:
[1] = target: T1, p53 Y220C mutant protein (amino acid residues 94-293) (Homo sapiens, UniProt P04637, Y220C); test: Surface Plasmon Resonance (SPR) assay, Kd_kinetic; assay type: binding; details: SPR; p53 Y220C; read-out: SPR P53 Y220C KD kinetic
T1 construct: p53 Y220C mutant protein (amino acid residues 94-293)
Outline: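 Surface plasmon resonance is run at 16 or 20 °C in 50 mM Tris pH 7.5 containing 100 mM NaCl, 1 mM DTT, 0.01% Brij35, 0.05% Tween-20 and 1% DMSO. Association and dissociation data are fitted to a 1:1 model.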

[2] = target: T1, p53 Y220C mutant protein (amino acid residues 94-293); test: Thermal Shift Assay (TSA), dTM; assay type: binding; details: p53 Y220C, read-out: TSA P53 Y220C dTM; for ΔTm at 10 µM: 10 uM compound; for ΔTm at 100 µM: 100 uM compound
Outline: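 TM is derived by fitting Sypro Orange melt curves (30 °C to 50 °C, 0.03 °C/second) to a Boltzmann two-state model. Beforehand, 5 μM p53 Y220C (94-293) sits with 10 μM or 100 μM compound for 3 hours at 20 °C in HEPES pH7.4 buffer containing 100 mM NaCl and 1% DMSO.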

p53 Y220C = p53 Y220C (Homo sapiens, UniProt P04637, Y220C); test: Luciferase Reporter Assay (Luc), p53 response element, NClH1299 cells with inducible p53 Y220C; assay type: cell-based; details: luciferase reporter, NClH1299 inducible p53 Y220C, 6 hour; for AC50: read-out: Luc P53 Y220C AC50
Outline: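 Doxycycline (0.5 ug/mL, 24 h) induces the mutant before a 6-hour compound treatment. Reporter activity is then quantified by One-Glo luminescence.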

NUGC3 p53 Y220C = test: Cell Proliferation Assay (CellTiter-Glo, CTG), NUGC3 p53 Y220C; assay type: cell-based; details: Homo sapiens, NUGC-3, 120 h, NUGC3 cells, 5 days, CellTiter-Glo
Outline: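 Tet-One inducible p53 Y220C or R273H constructs were stably introduced into NCI-H1299 by lentiviral transduction; NUGC3 was used as is. Cells (250-500 per well) were exposed to compound for 5 days, then CellTiter-Glo was added for 10 min at room temperature and IC50 was calculated from luminescence.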

H1299 p53 Y220C = test: Cell Proliferation Assay (CellTiter-Glo, CTG), H1299 p53 Y220C (NClH1299-inducible p53 Y220C); assay type: cell-based; details: Homo sapiens, NCI-H1299, 120 h, NClH1299-inducible p53 Y220C cells, 5 days, CellTiter-Glo
Outline: (§1)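 Cells seeded at 250-500 per well and exposed to compound for 5 days. Viability read by CellTiter-Glo luminescence after 10 min at room temperature; IC50 calculated. H1299 lines carry Tet-One inducible p53 mutant constructs introduced by lentiviral transduction.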

H1299 p53 R273H = test: Cell Proliferation Assay (CellTiter-Glo, CTG), H1299 p53 R273H (NClH1299-inducible p53 R273H); assay type: cell-based; details: Homo sapiens, NCI-H1299, 120 h, NClH1299-inducible p53 R273H cells, 5 days, CellTiter-Glo
Outline: as §1

SMILES	Kd [1] [nM]	ΔTm at 10 µM [2] [°C]	ΔTm at 100 µM [2] [°C]	AC50 (p53 Y220C) [nM]	Emax (p53 Y220C) [%]	IC50 (NUGC3 p53 Y220C) [nM]	IC50 (H1299 p53 Y220C) [nM]	IC50 (H1299 p53 R273H) [nM]
CNC(=O)c1ccc(OC)c(NCC#Cc2nn3c(N[C@@H]4CCN(C)C[C@@H]4F)cccc3c2SC(F)(F)F)c1 [Example 231]	< 10	≥ 10	≥ 10	< 750	80 to 90	< 750	< 750	5000 to 8000
COc1cc(C(N)=O)ccc1NCC#Cc1nn2c(N[C@@H]3CCN(C)C[C@@H]3F)cccc2c1SC(F)(F)F [Example 233]	< 10	≥ 10		< 750	80 to 90	< 750	< 750	8000 to 10000
CNC(=O)c1ccc(OC)c(NCC#Cc2nn3c(N[C@@H]4CCN(C)C[C@@H]4F)cccc3c2SC(F)(F)F)n1 [Example 234]	< 10	≥ 10		< 750	80 to 90	< 750	< 750	8000 to 10000
CNC(=O)c1ccc(OC)c(NCC#Cc2nn3c(N[C@@H]4CCNC[C@@H]4F)cccc3c2SC(F)(F)F)c1 [Example 236]	< 10	≥ 10	≥ 10	< 750	80 to 90	< 750	< 750	5000 to 8000
CNC(=O)c1ccc(OC)c(NCC#Cc2nn3c(N[C@@H]4CCNC[C@@H]4F)cccc3c2SC(F)(F)F)n1 [Example 237]	< 10	≥ 10		< 750	70 to 80	< 750	< 750	5000 to 8000
COc1cc(S(C)(=O)=O)ccc1NCC#Cc1nn2c(N[C@@H]3CCNC[C@@H]3F)cccc2c1SC(F)(F)F [Example 238]	< 10	≥ 10		< 750	80 to 90	< 750	< 750	5000 to 8000
CNC(=O)c1ccc(NCC#Cc2nc3c(N[C@@H]4CCN(C)C[C@@H]4F)cccn3c2SC(F)(F)F)c(C)c1 [Example 239]	< 10	≥ 10	≥ 10	< 750	> 90	< 750	< 750	8000 to 10000
CNC(=O)c1ccc(NCC#Cc2nc3c(NC4CCOCC4)cccn3c2SC(F)(F)F)c(OC)c1 [Example 241]	10 to 100	5 to 10	≥ 10	< 750	80 to 90	< 750	< 750	5000 to 8000
CNC(=O)c1ccc(NCC#Cc2nc3c(N[C@@H]4CCN(C)C4)cccn3c2SC(F)(F)F)c(OC)c1 [Example 242]	< 10	5 to 10	≥ 10	750 to 1500	80 to 90	< 750	< 750	5000 to 8000
CNC(=O)c1ccc(NCC#Cc2nc3c(N[C@H]4CCN(C)C4)cccn3c2SC(F)(F)F)c(OC)c1 [Example 243]	< 10	5 to 10	≥ 10	1500 to 3000	70 to 80	750 to 1500	750 to 1500	≥ 10000
CNC(=O)c1ccc(OC)c(NCC#Cc2nc3c(N[C@H]4C[C@@H]5CC[C@H]4N5)cccn3c2SC(F)(F)F)c1 [Example 245]	< 10	5 to 10	≥ 10	1500 to 3000	< 70	< 750	1500 to 3000	8000 to 10000
CNC(=O)c1ccc(OC)c(NCC#Cc2nn3c(N[C@@H]4CNC[C@@H]4F)cccc3c2SC(F)(F)F)c1 [Example 250]	< 10	≥ 10		< 750	80 to 90	< 750	< 750	5000 to 8000
CNC(=O)c1ccc(OC)c(NCC#Cc2nn3c(N[C@@H]4CN(C)C[C@@H]4F)cccc3c2SC(F)(F)F)c1 [Example 252]	< 10	≥ 10		< 750	80 to 90	< 750	< 750	≥ 10000
CNC(=O)c1ccc(OC)c(NCC#Cc2nn3c(N[C@@H]4CN(C)C[C@@H]4F)cccc3c2SC(F)(F)F)n1 [Example 253]	< 10	≥ 10		< 750	80 to 90	< 750	< 750	≥ 10000
CNC(=O)c1cnc(OC)c(NCC#Cc2nc3c(N[C@@H]4CCN(C)C[C@@H]4F)nccn3c2SC(F)(F)F)c1 [Example 254]	< 10	≥ 10		< 750	80 to 90	< 750	< 750	≥ 10000
CNC(=O)c1cnc(OC)c(NCC#Cc2cc3c(N[C@@H]4CCN(C)C[C@@H]4F)nccn3c2SC(F)(F)F)c1 [Example 255]	< 10	≥ 10	≥ 10	< 750	> 90	< 750	< 750	8000 to 10000
CNC(=O)c1cnc(OC)c(NCC#Cc2cc3c(N[C@@H]4CCN(C)C[C@@H]4F)cccn3c2SC(F)(F)F)c1 [Example 256]	< 10	≥ 10		< 750	> 90	< 750	< 750	5000 to 8000
COc1cc(P(C)(C)=O)ccc1NCC#Cc1cc2c(N[C@@H]3CCN(C)C[C@@H]3F)nccn2c1SC(F)F [Example 257]	< 10	≥ 10		< 750	80 to 90	< 750	< 750	≥ 10000
CNC(=O)c1cnc(OC)c(NCC#Cc2nc3c(N[C@@H]4CCNC[C@@H]4F)cccn3c2SC(F)(F)F)c1 [Example 258]	< 10	≥ 10		< 750	70 to 80	< 750	< 750	≥ 10000
CNC(=O)c1cnc(OC)c(NCC#Cc2nn3c(N[C@@H]4CCN(C)C[C@@H]4F)cccc3c2SC(F)(F)F)c1 [Example 260]	< 10	≥ 10		< 750	80 to 90	< 750	< 750	8000 to 10000
